These results are taken from patent publication US8129371B2, “Thienopyrimidine and pyrazolopyrimidine compounds and their use as mTOR kinase and PI3 kinase inhibitors” (Wyeth LLC, priority 2007, dated 2012).

Experiment [1] has as its system prostate line LNCap. Put plainly: In vitro cell culture growth assay (MTS), LNCap. The following applies: Homo sapiens, LNCaP, 72 h, LNCap cells, three days after drug treatment. Format: cell-based. The method, boiled down:
(§1)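 Growth is reported as percent of vehicle-treated control grown in the same plate, with viability determined by metabolic conversion of MTS dye and absorbance read at 490 nm. Compounds were applied one day after plating and left for three days.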

Experiment [2] addresses T1, Human mTOR (FLAG-TOR) (Homo sapiens, UniProt P42345).
T1 construct: FLAG
As to the kind of experiment: Human mTOR kinase assay with purified enzyme, DELFIA format. Format: biochemical. In a few lines: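 Purified FLAG-mTOR in HEPES pH 7.4 buffer with 10 mM MnCl2 was preincubated with inhibitor and reacted 2 h at room temperature with His6-S6K substrate, then stopped with EDTA/EGTA. Phospho-T389 S6K detected by DELFIA with Eu-labelled antibody (40 ng/mL) after plate capture; inhibition computed from signal.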

Experiment [3] concerns breast line MDA468. Put plainly: In vitro cell culture growth assay (MTS), MDA468. The class given is cell-based. The note with it: Homo sapiens, 72 h, MDA468 cells, three days after drug treatment. The method, boiled down: as §1
The target of experiment [4] is T2, PI3K (Homo sapiens, UniProt P48736).
T2 construct: PI3 Kinase γ IC50; other: PI3 Kinase γ; other: PI3 Kinase γ isoform, fluorescence polarization
Put plainly: Fluorescence polarization assay for PI3K. Format: biochemical. The following applies: PI3 Kinase γ; read-out: PI3 Kinase γ IC50. In a few lines:
(§2)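 PI3K was preincubated with compound (final DMSO 1%), and the reaction was started with PIP2/ATP substrate and run 30–60 min. It was stopped with a detector mix giving 10 nM red probe and 70 nM GST-GRP.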
Background: In fluorescence polarisation assays a small probe gives low polarisation when free and higher when bound to something large.

The target of experiment [5] is T3, PI3K (Homo sapiens, UniProt P42336).
T3 construct: PI3 Kinase α IC50; other: PI3 Kinase α; other: PI3 Kinase α isoform, fluorescence polarization
As to the kind of experiment: Fluorescence polarization assay for PI3K. Format: biochemical. The following applies: PI3 Kinase α; read-out: PI3 Kinase α IC50. In a few lines:
as §2

T2 sequence (P48736 whole entry, canonical isoform): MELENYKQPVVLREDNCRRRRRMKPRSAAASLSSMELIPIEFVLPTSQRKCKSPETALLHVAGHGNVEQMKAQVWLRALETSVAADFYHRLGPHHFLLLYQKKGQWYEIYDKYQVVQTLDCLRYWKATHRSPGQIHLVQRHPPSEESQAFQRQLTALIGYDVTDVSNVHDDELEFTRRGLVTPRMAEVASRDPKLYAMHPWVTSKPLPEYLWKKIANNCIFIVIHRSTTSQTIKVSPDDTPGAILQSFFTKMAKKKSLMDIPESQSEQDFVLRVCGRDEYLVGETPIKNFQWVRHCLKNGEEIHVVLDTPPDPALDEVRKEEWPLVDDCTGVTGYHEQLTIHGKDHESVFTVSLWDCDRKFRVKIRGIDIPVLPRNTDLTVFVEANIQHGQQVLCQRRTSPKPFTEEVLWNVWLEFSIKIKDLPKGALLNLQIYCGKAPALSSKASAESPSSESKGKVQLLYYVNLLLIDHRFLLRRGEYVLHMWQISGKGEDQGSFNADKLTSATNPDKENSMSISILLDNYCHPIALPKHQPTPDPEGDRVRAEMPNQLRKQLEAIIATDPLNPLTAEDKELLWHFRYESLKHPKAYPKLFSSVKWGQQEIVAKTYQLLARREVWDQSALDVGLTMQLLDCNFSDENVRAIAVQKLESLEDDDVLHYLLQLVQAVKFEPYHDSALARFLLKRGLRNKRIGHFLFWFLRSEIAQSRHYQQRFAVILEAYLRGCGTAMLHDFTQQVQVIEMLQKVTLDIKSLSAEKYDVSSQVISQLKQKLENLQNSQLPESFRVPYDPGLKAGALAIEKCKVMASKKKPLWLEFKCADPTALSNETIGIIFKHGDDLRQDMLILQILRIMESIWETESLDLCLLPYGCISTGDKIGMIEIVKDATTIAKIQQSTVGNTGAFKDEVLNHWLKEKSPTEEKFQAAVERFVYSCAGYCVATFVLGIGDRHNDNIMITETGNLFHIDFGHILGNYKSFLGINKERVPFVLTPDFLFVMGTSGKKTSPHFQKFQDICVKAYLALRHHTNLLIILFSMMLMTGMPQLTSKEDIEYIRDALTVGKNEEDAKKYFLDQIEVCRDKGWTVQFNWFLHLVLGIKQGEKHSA
T3 sequence (P42336 whole entry, canonical isoform): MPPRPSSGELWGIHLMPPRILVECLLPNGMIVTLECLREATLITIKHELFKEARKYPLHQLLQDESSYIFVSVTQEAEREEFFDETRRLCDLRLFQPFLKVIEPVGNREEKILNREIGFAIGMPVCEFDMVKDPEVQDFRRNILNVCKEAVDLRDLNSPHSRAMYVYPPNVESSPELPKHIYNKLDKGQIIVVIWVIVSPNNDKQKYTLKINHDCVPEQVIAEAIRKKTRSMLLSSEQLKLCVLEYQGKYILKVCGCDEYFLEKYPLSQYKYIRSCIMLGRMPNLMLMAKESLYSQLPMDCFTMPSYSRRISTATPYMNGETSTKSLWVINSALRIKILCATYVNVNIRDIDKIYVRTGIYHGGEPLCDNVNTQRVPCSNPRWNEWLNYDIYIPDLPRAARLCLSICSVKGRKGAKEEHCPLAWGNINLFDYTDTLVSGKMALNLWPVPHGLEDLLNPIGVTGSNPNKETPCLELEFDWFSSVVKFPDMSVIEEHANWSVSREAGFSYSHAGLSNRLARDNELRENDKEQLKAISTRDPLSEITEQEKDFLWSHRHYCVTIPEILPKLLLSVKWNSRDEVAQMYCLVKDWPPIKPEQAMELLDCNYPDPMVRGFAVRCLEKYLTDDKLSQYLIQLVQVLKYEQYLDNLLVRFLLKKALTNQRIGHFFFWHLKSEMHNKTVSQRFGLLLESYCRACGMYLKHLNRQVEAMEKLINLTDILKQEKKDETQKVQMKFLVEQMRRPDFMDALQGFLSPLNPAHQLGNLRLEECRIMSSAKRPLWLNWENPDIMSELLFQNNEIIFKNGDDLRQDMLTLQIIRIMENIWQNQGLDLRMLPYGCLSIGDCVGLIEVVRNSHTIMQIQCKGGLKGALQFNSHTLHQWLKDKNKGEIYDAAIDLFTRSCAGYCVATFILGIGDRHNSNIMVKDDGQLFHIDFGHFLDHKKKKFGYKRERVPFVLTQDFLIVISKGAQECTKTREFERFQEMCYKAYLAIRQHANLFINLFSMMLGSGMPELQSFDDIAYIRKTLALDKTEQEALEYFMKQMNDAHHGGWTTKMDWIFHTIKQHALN

The IC50 is the point on the concentration scale where inhibition reaches its midpoint. As for `CCn1ncc2c(N3CC4CCC(C3)O4)nc(-c3ccc(NC(=O)Nc4ccc(OCCN(C)C)cc4)cc3)nc21` [Example 186, 1-{4-[2-(dimethylamino)ethoxy]phenyl}-3-{4-[1-ethyl-4-(8-oxa-3-azabicyclo[3.2.1]oct-3-yl)-1H-pyrazolo[3,4-d]pyrimidin-6-yl]phenyl}urea], the IC50 in experiment [1] is under 1 nM; in experiment [2], 0.835 nM; in experiment [3], 8 nM; in experiment [4], 1780 nM; in experiment [5] it was 136 nM.

Turning to `CCn1ncc2c(N3CC4CCC(C3)O4)nc(-c3ccc(NC(=O)Nc4ccc(OC)cc4)cc3)nc21` [Example 187, 1-{4-[1-ethyl-4-(8-oxa-3-azabicyclo[3.2.1]oct-3-yl)-1H-pyrazolo[3,4-d]pyrimidin-6-yl]phenyl}-3-(4-methoxyphenyl)urea], the half-inhibitory concentration (IC50) in experiment [1] was determined as 1 nM; in experiment [2] it was 0.405 nM; in experiment [3], 19 nM; in experiment [4] it was 3800 nM; in experiment [5], 199 nM.

Consider `CCn1ncc2c(N3CC4CCC(C3)O4)nc(-c3ccc(NC(=O)Nc4ccc(Cl)cc4)cc3)nc21` [Example 188, 1-(4-chlorophenyl)-3-{4-[1-ethyl-4-(8-oxa-3-azabicyclo[3.2.1]oct-3-yl)-1H-pyrazolo[3,4-d]pyrimidin-6-yl]phenyl}urea], for which the concentration for half-maximal inhibition (IC50) in experiment [1] was found to be 10 nM; in experiment [2] it was 1.1 nM; in experiment [3], 190 nM; in experiment [4] it was 2980 nM; in experiment [5], 464 nM.

As to `CCn1ncc2c(N3CC4CCC(C3)O4)nc(-c3ccc(NC(=O)Nc4ccc(C)cc4)cc3)nc21` [Example 189, 1-{4-[1-ethyl-4-(8-oxa-3-azabicyclo[3.2.1]oct-3-yl)-1H-pyrazolo[3,4-d]pyrimidin-6-yl]phenyl}-3-(4-methylphenyl)urea], the half-maximal inhibitory concentration (IC50) in experiment [1] is 5 nM; in experiment [2] it was 0.885 nM; in experiment [3], 20 nM; in experiment [4], 11000 nM; in experiment [5], 849 nM.

Regarding `CCn1ncc2c(N3CC4CCC(C3)O4)nc(-c3ccc(NC(=O)Nc4ccc(C#N)cc4)cc3)nc21` [Example 190, 1-(4-cyanophenyl)-3-{4-[1-ethyl-4-(8-oxa-3-azabicyclo[3.2.1]oct-3-yl)-1H-pyrazolo[3,4-d]pyrimidin-6-yl]phenyl}urea], the 50% inhibitory concentration (IC50) in experiment [1] is 4 nM; in experiment [2] it was 0.505 nM; in experiment [3], 33 nM; in experiment [4] it was 3050 nM; in experiment [5] it was 542 nM.

As to `CCn1ncc2c(N3CC4CCC(C3)O4)nc(-c3ccc(NC(=O)OCC(C)O)cc3)nc21` (stereo not drawn) [Example 191, 2-hydroxypropyl {4-[1-ethyl-4-(8-oxa-3-azabicyclo[3.2.1]oct-3-yl)-1H-pyrazolo[3,4-d]pyrimidin-6-yl]phenyl}carbamate], the IC50 in experiment [1] was 210 nM; in experiment [2], 3.55 nM; in experiment [3], 780 nM; in experiment [4] it was over 10000 nM; in experiment [5], 6640 nM.

Turning to `COC(=O)Nc1ccc(-c2nc(N3CC4CCC(C3)O4)c3cnn(CCO)c3n2)cc1` [Example 192, methyl {4-[1-(2-hydroxyethyl)-4-(8-oxa-3-azabicyclo[3.2.1]oct-3-yl)-1H-pyrazolo[3,4-d]pyrimidin-6-yl]phenyl}carbamate], the IC50 was 1020 nM in experiment [1]; 26 nM in experiment [2]; 5000 nM in experiment [3]; over 10000 nM in experiment [4]; 2100 nM in experiment [5].

For `CNC(=O)Nc1ccc(-c2nc(N3CC4CCC(C3)O4)c3cnn(CCO)c3n2)cc1` [Example 193, 1-{4-[1-(2-hydroxyethyl)-4-(8-oxa-3-azabicyclo[3.2.1]oct-3-yl)-1H-pyrazolo[3,4-d]pyrimidin-6-yl]phenyl}-3-methylurea], the 50% inhibitory concentration (IC50) in experiment [1] is 650 nM; in experiment [2], 2.85 nM; in experiment [3] it was 980 nM; in experiment [4], over 10000 nM; in experiment [5], 375 nM.

Regarding `CCNC(=O)Nc1ccc(-c2nc(N3CC4CCC(C3)O4)c3cnn(CCO)c3n2)cc1` [Example 194, 1-ethyl-3-{4-[1-(2-hydroxyethyl)-4-(8-oxa-3-azabicyclo[3.2.1]oct-3-yl)-1H-pyrazolo[3,4-d]pyrimidin-6-yl]phenyl}urea], the 50% inhibitory concentration (IC50) in experiment [1] was 280 nM; in experiment [2], 2.7 nM; in experiment [3], 800 nM; in experiment [4], over 10000 nM; in experiment [5], 1500 nM.

`O=C(Nc1ccc(-c2nc(N3CC4CCC(C3)O4)c3cnn(CCO)c3n2)cc1)OCCO` [Example 195, 2-hydroxyethyl {4-[1-(2-hydroxyethyl)-4-(8-oxa-3-azabicyclo[3.2.1]oct-3-yl)-1H-pyrazolo[3,4-d]pyrimidin-6-yl]phenyl}carbamate]: the IC50 in experiment [1] was 640 nM; in experiment [2], 4.9 nM; in experiment [3] it was 1500 nM; in experiment [4], over 10000 nM; in experiment [5], 1880 nM.

Regarding `O=C(NCCO)Nc1ccc(-c2nc(N3CC4CCC(C3)O4)c3cnn(CCO)c3n2)cc1` [Example 196, 1-(2-hydroxyethyl)-3-{4-[1-(2-hydroxyethyl)-4-(8-oxa-3-azabicyclo[3.2.1]oct-3-yl)-1H-pyrazolo[3,4-d]pyrimidin-6-yl]phenyl}urea], the IC50 turned out to be 10000 nM in experiment [1]; 2.2 nM in experiment [2]; 13000 nM in experiment [3]; 7330 nM in experiment [4]; 607 nM in experiment [5].

As to `O=C(Nc1ccc(-c2nc(N3CC4CCC(C3)O4)c3cnn(CCO)c3n2)cc1)NC1CC1` [Example 197, 1-cyclopropyl-3-{4-[1-(2-hydroxyethyl)-4-(8-oxa-3-azabicyclo[3.2.1]oct-3-yl)-1H-pyrazolo[3,4-d]pyrimidin-6-yl]phenyl}urea], the IC50 worked out at 400 nM in experiment [1]; 2.85 nM in experiment [2]; 1400 nM in experiment [3]; 12000 nM in experiment [4]; 1340 nM in experiment [5].

On to `O=C(Nc1ccccc1)Nc1ccc(-c2nc(N3CC4CCC(C3)O4)c3cnn(CCO)c3n2)cc1` [Example 198, 1-{4-[1-(2-hydroxyethyl)-4-(8-oxa-3-azabicyclo[3.2.1]oct-3-yl)-1H-pyrazolo[3,4-d]pyrimidin-6-yl]phenyl}-3-phenylurea], for which the half-inhibitory concentration (IC50) was determined as 28 nM in experiment [1]; 0.685 nM in experiment [2]; 190 nM in experiment [3]; 1930 nM in experiment [4]; 68 nM in experiment [5].

Consider `O=C(Nc1ccc(-c2nc(N3CC4CCC(C3)O4)c3cnn(CCO)c3n2)cc1)Nc1cccnc1` [Example 199, 1-{4-[1-(2-hydroxyethyl)-4-(8-oxa-3-azabicyclo[3.2.1]oct-3-yl)-1H-pyrazolo[3,4-d]pyrimidin-6-yl]phenyl}-3-pyridin-3-ylurea], for which the IC50 in experiment [1] worked out at 90 nM; in experiment [2] it was 0.46 nM; in experiment [3], 110 nM; in experiment [4], 3990 nM; in experiment [5], 174 nM.

Consider `O=C(Nc1ccncc1)Nc1ccc(-c2nc(N3CC4CCC(C3)O4)c3cnn(CCO)c3n2)cc1` [Example 200, 1-{4-[1-(2-hydroxyethyl)-4-(8-oxa-3-azabicyclo[3.2.1]oct-3-yl)-1H-pyrazolo[3,4-d]pyrimidin-6-yl]phenyl}-3-pyridin-4-ylurea], for which the concentration for half-maximal inhibition (IC50) in experiment [1] amounted to 50 nM; in experiment [2], 0.39 nM; in experiment [3], 50 nM; in experiment [4], 2200 nM; in experiment [5] it was 92 nM.

As for `O=C(Nc1ccc(CO)cc1)Nc1ccc(-c2nc(N3CC4CCC(C3)O4)c3cnn(CCO)c3n2)cc1` [Example 201, 1-{4-[1-(2-hydroxyethyl)-4-(8-oxa-3-azabicyclo[3.2.1]oct-3-yl)-1H-pyrazolo[3,4-d]pyrimidin-6-yl]phenyl}-3-[4-(hydroxymethyl)phenyl]urea], the IC50 in experiment [1] came out at 13 nM; in experiment [2], 0.265 nM; in experiment [3] it was 12 nM; in experiment [4], 1760 nM; in experiment [5] it was 50 nM.

On to `O=C(Nc1ccc(CCO)cc1)Nc1ccc(-c2nc(N3CC4CCC(C3)O4)c3cnn(CCO)c3n2)cc1` [Example 202, 1-{4-[1-(2-hydroxyethyl)-4-(8-oxa-3-azabicyclo[3.2.1]oct-3-yl)-1H-pyrazolo[3,4-d]pyrimidin-6-yl]phenyl}-3-[4-(2-hydroxyethyl)phenyl]urea], for which the 50% inhibitory concentration (IC50) in experiment [1] came to 1 nM; in experiment [2], 0.215 nM; in experiment [3], 4 nM; in experiment [4] it was 2160 nM; in experiment [5], 44 nM.

Take `CN1CCN(c2ccc(NC(=O)Nc3ccc(-c4nc(N5CC6CCC(C5)O6)c5cnn(CCO)c5n4)cc3)cc2)CC1` [Example 203, 1-{4-[1-(2-hydroxyethyl)-4-(8-oxa-3-azabicyclo[3.2.1]oct-3-yl)-1H-pyrazolo[3,4-d]pyrimidin-6-yl]phenyl}-3-[4-(4-methylpiperazin-1-yl)phenyl]urea]: the IC50 in experiment [1] turned out to be 1 nM; in experiment [2], 1.07 nM; in experiment [3] it was 2 nM; in experiment [4] it was 1140 nM; in experiment [5], 104 nM.
